In the NIST ThermoML archive (doi:10.1021/acs.jced.5b00710):
Numbers after ± are expanded uncertainties.

Experiment: an = ratio of the nth substance listed
Settings: 298.15 K; 101 kPa; Liquid; Cone and plate viscometry; a1 = 1

CCCCCCCCCCCCCC[P+](CCCCCC)(CCCCCC)CCCCCC.O=S(=O)([N-]S(=O)(=O)C(F)(F)F)C(F)(F)F + NCCO
viscosity: 90 ± 2 mPa·s
